In patent publication US10450274B2, “Quinoline compounds, preparation methods thereof, and uses thereof as urate transporter inhibitor drug” (HINOVA PHARMACEUTICALS INC., priority 2015, dated 2019):
Several values for one entry are separate records, joined by “and”; a condition that tells them apart may be missing. Equal values may be shown once. Read-outs that look alike come from different tables or passages of the source.

Molecular target: T1, hURAT1 (Homo sapiens, UniProt Q96S37)
T1 sequence (Q96S37 1-553): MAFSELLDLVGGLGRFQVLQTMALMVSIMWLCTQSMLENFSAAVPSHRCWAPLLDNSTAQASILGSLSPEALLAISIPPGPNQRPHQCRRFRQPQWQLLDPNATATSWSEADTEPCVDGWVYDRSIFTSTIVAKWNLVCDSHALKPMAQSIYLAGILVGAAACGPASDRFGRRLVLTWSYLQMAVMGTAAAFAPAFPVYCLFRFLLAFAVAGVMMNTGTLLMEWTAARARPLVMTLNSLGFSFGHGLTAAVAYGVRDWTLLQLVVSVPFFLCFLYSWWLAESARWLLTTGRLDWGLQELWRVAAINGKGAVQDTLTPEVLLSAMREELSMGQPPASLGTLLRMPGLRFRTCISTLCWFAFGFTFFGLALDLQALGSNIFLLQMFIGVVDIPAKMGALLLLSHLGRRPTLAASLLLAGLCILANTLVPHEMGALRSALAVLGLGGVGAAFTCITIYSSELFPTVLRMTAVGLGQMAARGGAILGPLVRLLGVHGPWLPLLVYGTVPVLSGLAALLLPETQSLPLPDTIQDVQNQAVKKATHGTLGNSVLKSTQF
Assay: Inhibitory activity against URAT1: 14C-labelled uric acid uptake in HEK-293t cells stably expressing hURAT1
Assay type: cell-based
Excerpt: • Test example: Determination of the inhibitory activity of compounds according to the present invention against URAT1 Experimental Materials • FBS (Invitrogen, Cat. No. 10099141) • Trypsin (Invitrogen, Cat. No. 25200056) • DPBS (Invitrogen, Cat. No. 14190250) • DMEM (Invitrogen, Cat. No. 10564) • Penicillin-Streptomycin (Invitrogen, Cat. No. 15070-063) • TransIT-293 Transfection Reagent (MIRUS BIO, Cat. No. MIR2706) • Opti-MEM® I Reduced Serum Medium (Invitrogen, Cat. No. 31985-070) • URAT1 plasmid (Genecopoeia, Cat. No. EX-T4563-M03) • Uric acid [8-14C] (ARC, Cat. No. ARC0513-250UCI) • Ultima Gold™ XR (PerkinElmer, Cat. No. 6013111) • Benzbromarone (J&K Scientific, Cat. No. 3562-84-3) • D-Gluconic acid sodium salt (Aladdin, Cat. No. 527-07-1) • Potassium D-gluconate (Aladdin, Cat. No. 299-27-4) • Calcium gluconate (Aladdin, Cat. No. 299-28-5) • DMSO (Sigma, Cat. No. D2650) • Tube, 15 ml (Greiner, Cat. No. 07030115) • Tube, 50 ml (BD Falcon, Cat. No. 352098) • Poly-D-lysine 96-well microplates (BD, Cat. No. 356461) • Isoplate-96 Microplate (PERKIN ELMER, Cat. No. 6005040) Experimental Method:
Cell Culture: • 1. The HEK-293t cells that expressed the stable expression of hURAT1 were cultured in DMEM medium containing 10% FBS and 1% P/S, and incubated overnight in the incubator at 37° C. under 5% carbon dioxide. • 2. the culture medium was removed, and the cells were washed with PBS, and then the pancreatin was added to digest for 2 minutes. After the cell is separated from the dish, 10 ml of medium was added to terminate digestion. • 3. The cells were placed into a centrifugal apparatus and centrifugated for 2 minutes at the speed of 1000 rpm, followed by the addition of fresh 10 mL medium to resuspend the cells, and calculate the number of cells. The number of cells was adjusted to 4×10^5 cells/mL. • 4. the above counted cells were inoculated into the 96-well plate at 100 μL/well. • 5. The 96-well plate with inoculated cells was placed in a 37° C. cell incubator and cultivated overnight.
The uric acid absorption experiment labeled with isotope C14: • 1. 5 mL of Cl-free HBSS buffer was added to a 15 mL centrifuge tube, followed by the addition of the uric acid labeled with C14, and the concentration of uric acid was 2 uCi/ml. • 2. The medium in the 96-well plate that was previously cultivated overnight was removed, and the plate was washed three times with […] preheated Cl-free HBSS buffer. • 3. The buffer in the well-washed 96-well plate was removed. • 4. […] Cl-free HBSS buffer containing C-14 labeled uric acid was added into each well in the cleaned 96-well plate, and then DMSO solution of the compound that needs to be tested was added. • 5. After the 96-well plate stood for 5 minutes at room temperature, all the liquid in it was removed. • 6. […] precooled Cl-free HBSS buffer was added to wash the plate three times. • 7. After the remained liquid in the plates was completely removed, 50 μL cell lysis was added to each well, and the plate was agitated on the mixer at a speed of 600 revolutions/min for 10 minutes. • 8. After 50 μL Ultima Gold™ XR scitillation cocktail fluid was added, the plate was continued to agitate for 10 minutes. The well-agitated plate was sealed, and the data was read on MicroBeta Trilux. • 9. The test compound was dissolved in DMSO, and DMSO at the same concentration was added to the HEK293/hURAT1 cell well without test compounds. […] The radiation value obtained from the well containing DMSO is considered to be 100% of the cell uptake. The IC50 values of compounds can be calculated by the inhibition rate at different concentrations.
Among them, reference compound 1 was synthesized according to the method described in patent WO 2011/159839 A2. Reference compound 2 and reference compound 3 were synthesized according to the method described in patent WO 2014/183555 A1, and they were head-to-head tested with compounds 83 and 129 respectively under the same conditions.

[1] = HEK-293t/hURAT1 cells, 14C uric acid uptake, 5 minutes at room temperature, Ref Cpd 2, 83, Ref Cpd 3 and 129 are averages of head-to-head tests, read-out: IC50 (nM) of hURAT1 inhibitory activity

IC50 [1]	Compound	further results
36 nM	2-(6-(2-fluoropyridin-4-yl)-quinolin-4-ylthio)-2-ethylbutanoic acid [Compound 118]	
1400 nM	2-(6-(3-fluoropyridin-4-yl)-quinolin-4-ylthio)-2-ethylbutanoic acid [Compound 123]	
486 nM	CC(C)(Sc1ccnc2ccc(C3CC3)cc12)C(=O)O [Compound 1, 2-(6-cyclopropylquinolin-4-ylthio)-2-methylpropanoic acid]	
514 nM	CC(C)(Sc1ccnc2ccc(-c3cccnc3)cc12)C(=O)O [Compound 3, 2-(6-(pyridin-3-yl)quinolin-4-ylthio)-2-methylpropanoic acid]	
127 nM	CC(C)(Sc1ccnc2ccc(-c3ccncc3)cc12)C(=O)O [Compound 4, 2-(6-(pyridin-4-yl)quinolin-4-ylthio)-2-methylpropanoic acid]	
472 nM	COc1ccccc1-c1ccc2nccc(SC(C)(C)C(=O)O)c2c1 [Compound 19, 2-(6-(2-methoxyphenyl)-quinolin-4-ylthio)-2-methylpropanoic acid]	
21 nM	COc1cccc(-c2ccc3nccc(SC(C)(C)C(=O)O)c3c2)c1 [Compound 20, 2-(6-(3-methoxyphenyl)-quinolin-4-ylthio)-2-methylpropanoic acid]	
1900 nM	COc1ccc(-c2ccc3nccc(SC(C)(C)C(=O)O)c3c2)cc1 [Compound 21, 2-(6-(4-methoxyphenyl)quinolin-4-ylthio)-2-methylpropanoic acid]	
159 nM	CC(C)(Sc1ccnc2ccc(Br)cc12)C(=O)O [Compound 22, 2-((6-bromoquinolin-4-yl)thio)-2-methylpropanoic Acid]	
6000 nM	CCC(Sc1ccnc2ccc(Br)cc12)C(=O)O (stereo not drawn) [Compound 24, 2-(6-bromoquinolin-4-ylthio)butanoic acid]	
812 nM	CC(C)(Sc1ccnc2ccc(-c3ccccc3F)cc12)C(=O)O [Compound 25, 2-(6-(2-fluorophenyl)-quinolin-4-ylthio)-2-methylpropanoic acid]	
351 nM	CC(C)(Sc1ccnc2ccc(-c3cccc(F)c3)cc12)C(=O)O [Compound 28, 2-(6-(3-fluorophenyl)-quinolin-4-ylthio)-2-methylpropanoic acid]	
4600 nM	CC(C)(Sc1ccnc2ccc(-c3ccc(C(F)(F)F)cc3)cc12)C(=O)O [Compound 34, 2-(6-(4-(trifluoromethyl)phenyl)quinolin-4-ylthio)-2-methylpropanoic acid]	
325 nM	CC(C)(Sc1ccnc2ccc(-c3ccccc3C(F)(F)F)cc12)C(=O)O [Compound 37]	
70.6 nM	CCC(CC)(Sc1ccnc2ccc(Br)cc12)C(=O)O [Compound 83, 2-(6-bromoquinolin-4-ylthio)-2-ethylbutanoic acid]	IC50 (average of the multiple head-to-head comparison tests, Table 2, read-out: Average (IC50 of multiple determinations)): 70.6 nM; IC50 (single determinations of multiple head-to-head tests, Ref cpd 2 vs Cpd 83, read-out: Multiple determination data (IC50)): 42.5 nM and 117 nM and 89 nM and 93 nM and 56 nM and 58 nM and 38.9 nM; inhibitory effect on uric acid transporter URAT1 (in words) (statement in the text on Table 1): better inhibitory activity against the uric acid transporter than compound 1
2400 nM	CC(C)(Sc1ccnc2ccccc12)C(=O)O [Compound 93, 2-(quinolin-4-ylthio)-2-methylpropanoic acid]	
4300 nM	CC(C)C(Sc1ccnc2ccc(Br)cc12)C(=O)O (stereo not drawn) [Compound 94, 2-(6-bromoquinolin-4-ylthio)-3-methylbutanoic acid]	
> 30000 nM	COc1cc2nccc(SC(C)(C)C(=O)O)c2cc1OC [Compound 95, 2-(6,7-dimethoxyquinolin-4-ylthio)-2-methylpropanoic acid]	
772 nM	CC(C)(Sc1ccnc2ccc(C(F)(F)F)cc12)C(=O)O [Compound 96, 2-(6-trifluoromethylquinolin-4-ylthio)-2-methylpropanoic acid]	
8140 nM	CC(C)(Sc1ccnc2ccc(-c3ccc(C#N)cc3)cc12)C(=O)O [Compound 100, 2-(6-(4-cyano-phenyl)-quinolin-4-ylthio)-2-methylpropanoic acid]	
710 nM	CC(C)(Sc1ccnc2ccc(-c3cccc(OC(F)(F)F)c3)cc12)C(=O)O [Compound 101, 2-(6-(3-trifluoromethoxy-phenyl)-quinolin-4-ylthio)-2-methylpropanoic acid]	
32 nM	CCOc1cccc(-c2ccc3nccc(SC(C)(C)C(=O)O)c3c2)c1 [Compound 102, 2-(6-(3-ethoxy-phenyl)-quinolin-4-ylthio)-2-methylpropanoic acid]	
37 nM	CC(C)Oc1cccc(-c2ccc3nccc(SC(C)(C)C(=O)O)c3c2)c1 [Compound 103, 2-(6-(3-isopropoxy-phenyl)-quinolin-4-ylthio)-2-methylpropanoic acid]	
238 nM	CC(C)(Sc1ccnc2ccc(-c3cccc(OC(F)F)c3)cc12)C(=O)O [Compound 104]	
336 nM	CS(=O)(=O)NC(=O)C1(Sc2ccnc3ccc(Br)cc23)CCC1 [Compound 107, 1-(6-bromoquinolin-4-ylthio)-N-(methylsulfonyl)cyclobutyl-1-formamide]	
523 nM	CCCC(CCC)(Sc1ccnc2ccc(-c3cccc(OCC)c3)cc12)C(=O)O [Compound 108, 2-(6-(3-ethoxy-phenyl)-quinolin-4-ylthio)-2-propylpentanoic acid]	
722 nM	CCCC(CCC)(Sc1ccnc2ccc(-c3cccc(OC4CC4)c3)cc12)C(=O)O [Compound 109, 2-(6-(3-cyclopropyloxy-phenyl)-quinolin-4-ylthio)-2-propylpentanoic acid]	
2860 nM	CCCC(CCC)(Sc1ccnc2ccc(-c3cccc(OC4CCC4)c3)cc12)C(=O)O [Compound 110, 2-(6-(3-cyclobutyloxy-phenyl)-quinolin-4-ylthio)-2-propylpentanoic acid]	
267 nM	CCC(CC)(Sc1ccnc2ccc(-c3cccc(OC4CCC4)c3)cc12)C(=O)O [Compound 111, 2-(6-(3-cyclobutyloxy-phenyl)-quinolin-4-ylthio)-2-ethylbutanoic acid]	
147 nM	CCC(CC)(Sc1ccnc2ccc(-c3cccc(OC4CC4)c3)cc12)C(=O)O [Compound 112, 2-(6-(3-cyclopropyloxy-phenyl)-quinolin-4-ylthio)-2-ethylbutanoic acid]	
